Source: ChEMBL document CHEMBL5528001, “Synthetic product-based approach toward potential antileishmanial drug development” (Eur J Med Chem, 2024)

How the values were obtained:
[1] = system: Leishmania infantum; assay: Antileishmanial activity against Leishmania infantum MCAN/ES/89/IPZ229/1/89 promastigotes assessed as reduction in parasite growth measured for 48 hrs by resazurin dye based analysis; type: functional, organism-based; conditions: MCAN/ES/89/IPZ229/1/89, 48 h
[2] = system: HepG2; assay: Antiproliferative activity against human HepG2 cells assessed as reduction in cell viability incubated for 72 hrs by MTT assay; type: functional, cell-based; conditions: HepG2, 72 h
[3] = system: HepG2; assay: Cytotoxicity against human HepG2 cells assessed as reduction in cell growth incubated for 48 hrs by MTT assay; type: functional, cell-based; conditions: HepG2, 48 h
[4] = system: Leishmania infantum; assay: Antileishmanial activity against Leishmania infantum amastigotes infected in human THP-1 cells assessed as reduction in parasite growth incubated for 72 hrs by high content imaging analysis; type: functional, organism-based; conditions: THP-1, 72 h
[5] = system: Leishmania infantum; assay: Antileishmanial activity against Leishmania infantum MCAN/ES/ 89/IPZ229/1/89 axenic amastigotes assessed as reduction in parasite viability treated for 48 hrs by PI staining based flow cytometry; type: functional, organism-based; conditions: MCAN/ES/89/IPZ229/1/89, 48 h
[6] = system: Leishmania infantum; assay: Antiparasitic activity against Leishmania infantum amastigotes infected in human THP-1 cells assessed as reduction in parasitemia incubated for 72 hrs by high content imaging analysis; type: functional, organism-based; conditions: THP-1, 72 h
[7] = Selectivity index, ratio of CC50 for cytotoxicity against mouse BMDM cells to IC50 for antileishmanial activity against Leishmania amazonensis intracellular amastigotes; type: toxicity, cell-based; conditions: read-out: Ratio CC50/IC50
[8] = system: Leishmania infantum; assay: Antileishmanial activity against Leishmania infantum MHOM/MA/67/ITMAP263 axenic amastigotes assessed as reduction in parasite viability treated for 24 hrs by PI staining based flow cytometry; type: functional, organism-based; conditions: MHOM/MA/67/ITMAP263, 24 h
[9] = system: Leishmania amazonensis; assay: Antileishmanial activity against Leishmania amazonensis intracellular amastigotes assessed as parasite growth inhibition measured for 72 hrs by resazurin/alamar blue fluorometric assay; type: functional, organism-based
[10] = system: Leishmania amazonensis; assay: Antileishmanial activity against Leishmania amazonensis WHOM/00LTB001 promastigotes assessed as reduction in parasite growth incubated for 72 hrs by resazurin staining based analysis; type: functional, organism-based; conditions: WHOM/00LTB001, 72 h
[11] = Cytotoxicity against mouse J774.A1 cells assessed as inhibition of cell growth measured for 72 hrs by MTT assay; type: toxicity, cell-based
[12] = system: Leishmania major; assay: Antileishmanial activity against Leishmania major IR-173 promastigotes assessed as inhibition of parasite growth measured for 48 hrs by resazurin staining based analysis; type: functional, organism-based; conditions: IR-173, 48 h
[13] = Cytotoxicity against primary peritoneal mouse macrophages cells assessed as reduction in cell growth measured after 24 hrs by colorimetric assay; type: toxicity, cell-based, Macrophage
[14] = system: Leishmania major; assay: Antileishmanial activity against Leishmania major MHOM/IR/-173 promastigotes assessed as inhibition of parasite growth measured for 24 hrs by resazurin dye-based analysis relative to control; type: functional; set-up: scale not given: the % may be the effect or the level left
[15] = system: Leishmania major; assay: Antileishmanial activity against Leishmania major MHOM/IN/95/9515 amastigotes assessed as reduction in cell growth; type: functional, organism-based
[16] = system: Leishmania donovani; assay: Antileishmanial activity against Leishmania donovani MHOM/SD/62/1S amastigotes assessed as reduction in cell growth; type: functional, organism-based
[17] = system: Leishmania amazonensis; assay: Antileishmanial activity against Leishmania amazonensis promastigotes assessed as reduction in parasite viability incubated for 48 hrs by MTT assay; type: functional, organism-based
[18] = Cytotoxicity against human THP-1 cells assessed as inhibition of cell growth measured after 72 hrs by MTT assay; type: toxicity, cell-based
[19] = system: Leishmania donovani; assay: Antileishmanial activity against Leishmania donovani 9515 promastigotes assessed as inhibition of parasite growth incubated for 48 hrs by resazurin dye based assay; type: functional, organism-based; conditions: Leishmania donovani, 9515, 48 h
[20] = Cytotoxicity against African green monkey Vero cells assessed as reduction in cell viability incubated for 72 hrs by MTT assay; type: toxicity, cell-based, Chlorocebus sabaeus
[21] = system: Leishmania donovani; assay: Antileishmanial activity against Leishmania donovani 9515 amastigotes assessed as inhibition of parasite growth incubated for 48 hrs by resazurin dye based assay; type: functional, organism-based; conditions: Leishmania donovani, 9515, 48 h
[22] = system: Leishmania donovani; assay: Antileishmanial activity against Leishmania donovani amastigotes MHOM/SD/62/1S assessed as inhibition of cell growth measured after 48 hrs by resazurin dye based assay; type: functional, organism-based
[23] = system: Leishmania donovani; assay: Antileishmanial activity against Leishmania donovani promastigotes MHOM/SD/62/1S assessed as inhibition of cell growth measured after 48 hrs by resazurin dye based assay; type: functional, organism-based
[24] = system: Leishmania donovani; assay: Antileishmanial activity against Leishmania donovani amastigotes assessed as inhibition of parasite growth; type: functional, organism-based
[25] = system: Leishmania donovani; assay: Antileishmanial activity against Leishmania donovani promastigotes assessed as inhibition of parasite growth; type: functional, organism-based
[26] = system: Leishmania infantum; assay: Antileishmanial activity against Leishmania infantum promastigote after 72 hrs by MTT assay; type: functional, organism-based
[27] = Cytotoxicity against mouse RAW264.7 cells assessed as reduction in cell viability measured after 48 hrs by MTT assay; type: toxicity, cell-based
[28] = system: Leishmania donovani; assay: Antileishmanial activity against Leishmania donovani MHOM/ET/67/HU3 promastigotes assessed as inhibition of parasite growth incubated for 72 hrs by MTT assay; type: functional, organism-based; conditions: MHOM/ET/67/HU3, 72 h
[29] = system: Leishmania donovani; assay: Antileishmanial activity against Leishmania donovani axenic amastigotes assessed as reduction in parasite growth measured after 24 hrs by PI staining based analysis; type: functional, organism-based
[30] = Selectivity index, ratio of CC50 for cytotoxicity against mouse J774.A1 cells to IC50 for antileishmanial activity against Leishmania amazonensis axenic amastigote assessed as inhibition of parasite growth; type: toxicity, cell-based; conditions: read-out: Ratio CC50/IC50
[31] = system: HepG2; assay: Antiproliferative activity against human HepG2 cells assessed as reduction in cell growth measured for 72 hrs by MTT assay; type: functional, cell-based; conditions: HepG2, 72 h
[32] = system: HepG2; assay: Cytotoxicity against human HepG2 cells assessed as reduction in cell growth measured for 48 hrs by MTT assay; type: functional
[33] = system: Leishmania infantum; assay: Antileishmanial activity against Leishmania infantum MON-1 promastigotes assessed as reduction in parasite viability measured after 48 hrs by MTT assay; type: functional, organism-based; conditions: MON-1, 48 h
[34] = system: Leishmania donovani; assay: Antileishmanial activity against Leishmania donovani S1 promastigotes assessed as parasite growth inhibition incubated for 72 hrs by Alamar blue assay; type: functional, organism-based; conditions: S1, 72 h

In the case of `Nc1nc2ccccc2c2ccccc12`, the EC50 [1] is reported as 12.6 µM, the EC50 [2] is reported as under 30 µM and the EC50 [3] is reported as 3.07 µM.
For `C/C(=N\Nc1nc(-c2ccc(Br)cc2)cs1)c1ccccn1`, the IC50 [4] was 0.43 µM.
In the case of `CC1(C)Oc2c(c(=O)[nH]c3ccccc23)[C@H]2[C@@H](Cl)[C@](C)(O)CC[C@@H]21`, the IC50 [5] is reported as 8.1 µM.
With `Cn1c(=O)c2c(c3ccccc31)OC(C)(C)[C@H]1CC[C@@](C)(O)[C@H](Cl)[C@H]21` the IC50 [6] was over 6.25 µM.
With `CCCCCCCCNCc1ccc2c(c1)C(=O)CC(C)(C)O2` the selectivity ratio [7] was 1.6, the IC50 [8] was 25.3 µM and the IC50 [9] was 24.6 µM.
Molecule `CCc1ccc(NC(=S)N/N=C/c2c[nH]c3c(C)cc(Br)cc23)cc1` has an IC50 [10] of 12.3 µM and a CC50 at 72 h [11] of 53.2 µM.
For `CCCCCCCCCCn1cc(CNCCNc2ccnc3cc(Cl)ccc23)nn1`, the IC50 [12] was 0.08 µM and the CC50 at 24 h [13] was 18.2 µM.
Work on `O=C(Cn1cnc2ccccc2c1=O)N1CCC2(CC1)OCCO2` yielded an Activity [14] of 35%.
`Cc1ccc2c(NCCCN(C)C(=O)c3cccc(/C=C/C(=O)c4ccc(C)o4)c3)ccnc2c1` showed an IC50 [15] of 1.14 µM and an IC50 [16] of 1.08 µM.
With `O=C(CCc1ccc(O)c(O)c1)O[C@H](Cc1ccc(O)cc1)C(=O)O` the IC50 [17] was 19 µM.
`O=[N+]([O-])c1ccc(/C=N\NS(=O)(=O)c2ccc(-c3ccccc3)cc2)o1` gave an IC50 at 72 h [18] of 50.4 µM, an IC50 [19] of 1.53 µM and an IC50 at 72 h [20] of 16.4 µM. The IC50 [21] was 6.29 µM, the IC50 [22] was 2.94 µM and the IC50 [23] was 1.45 µM.
For `Cc1cc(O)c(C(=O)Nc2ccccc2)c(=O)n1Cc1ccc(F)cc1`, the IC50 [24] was 55.8 µM and the IC50 [25] was 55 µM.
`O=C(/C=C/c1ccc(F)cc1)c1ccccc1Cl` gave an IC50 [26] of 74.1 µM and a CC50 at 48 h [27] of 479 µM.
For `CC(=O)Oc1ccc(CN2CNC(=O)C=N2)cc1C1OC(c2cccc(Cl)c2)=NN1C(C)=O` (centres undefined), the IC50 [28] was 8.98 µM, the IC50 [29] was 6.05 µM and the selectivity ratio [30] was 2.4.
In the case of `CCOC(=O)c1cc2c([nH]c3ccccc32)c(-c2cn(-c3ccccc3)nn2)n1`, the EC50 [31] is reported as 13.6 µM, the CC50 [32] is reported as over 200 µM and the EC50 [33] is reported as 4.8 µM.
For `COc1cccc2c1O/C(=C(/C)c1ncc([N+](=O)[O-])[nH]1)C2=O`, the IC50 [34] was 0.016 µM.
